{"source": "patent US9981037B2", "about": "“Combination therapy of beta-glycolipids and antibodies for the treatment of immune-related disorders” (HADASIT MEDICAL RESEARCH SERVICES AND DEVELOPMENT LTD., priority 2008, dated 2018)", "key": {"[1]": {"tested_on": "healthy human volunteers", "test": "Clinical and laboratory follow-up, CD3+ counts and HAMA in healthy human volunteers", "assay_type": "in vivo", "conditions": "oral", "procedure": "* OKT3 (Orthoclone OKT-3) was purchased from Ortho Biotech Inc. (New Jersey, USA). Antibodies to OKT3 were evaluated on day 30 using the Human Anti-Mouse Antibodies (HAMA)-ELISA kit (MEDAC, Hamburg, Germany).\nHealthy males (≥18 years) not on therapy for medical or other illnesses were enrolled in accordance with the guidelines of the Hebrew University-Hadassah Institutional Committee for Human Clinical Trials, and the approval of the Israel Ministry of Health Committee for Human Trials. Of 35 potential study subjects screened 18 met inclusion and exclusion criteria and were randomized to one of the treatment groups.\nNine subjects (3/group) were orally administered 0.2 mg, 1.0 mg or 5.0 mg of OKT3 daily for 5 days and immune parameters measured on days 5, 10 and 30 days (FIG. 12). Six subjects (3/group) received 7.5 mg of beta glucosylceramide in combination with 0.2 mg or 1.0 mg of OKT3 and 3 subjects received GC alone. All subjects were treated with 20 mg of Omeprazole (a proton pump inhibitor) during the 5 days of dosing. […]\nAll patients underwent a full medical history and physical examination, including review of adverse effects on days 1, 5, 10, and 30, along with complete blood counts, differential, electrolytes, liver and kidney function tests, and lipid profile. C-reactive protein and sedimentation rates were also evaluated. […]"}, "[2]": {"tested_on": "IgG and IgM repertoire", "test": "Antigen microarrays of serum IgG and IgM reactivities", "assay_type": "in vivo, human", "from_the_text": "A panel of self and non-self proteins, peptides and lipids were spotted onto Epoxi slides (TeleChem, CA, USA) as described [Quintana, F. J. et al. Proc. Natl. Acad. Sci. USA 101 Suppl 2:14615-14621 (2004)]. Since several of the self-antigens included in the antigen microarrays used by the invention, are targeted by natural antibodies [Coutinho, A. et al. Curr. Opin. Immunol. 7:812-818 (1995); Quintana, F. J. and Cohen, I. R. Biomed Pharmacother 58:276-281 (2004)], the inventors could detect both the up and the down-regulation of preexisting IgG and IgM reactivities. Sera from OKT3-treated subjects were assayed at a 1/10 dilution and the IgG or IgM reactivities displaying significant changes upon treatment were identified. Briefly, antigens were spotted in replicates of 6, the microarrays were blocked for 1 h at 37° C. with 1% bovine serum albumin, and incubated for 2 hr at 37° C. with a 1:200 dilution of the test serum in blocking buffer. The arrays were then washed and incubated for 45 minutes at 37° C. with a 1:500 dilution of detection antibodies: a goat […] Cy3-conjugated antibody or a goat anti-mouse IgM Cy5-conjugated antibody (Jackson ImmunoResearch, West Grove, Pa.). The arrays were scanned with a ScanArray 4000× scanner (GSI Luminomics, Billerica, Mass., USA) and the IgM and IgG results were recorded separately.\nRaw data were normalized and analyzed using the GeneSpring software (Silicon Genetics, Redwood City, Calif.). Antigen reactivity was defined by the mean intensity of binding to the replicates of that antigen on the microarray. The data were analyzed with the Wilcoxon rank-sum test, a non-parametric test robust to outliers, using the Benjamini and Hochberg false discovery method with a p-value of 0.2 to determine significance [Stekel, D. Microarray Bioinformatics. Cambridge University Press, Cambridge (2003)]. To perform the hierarchical clustering of the antibody reactivities a pair wise average linkage algorithm based on Pearson's correlation was used as a distance measure [Stekel (2003) ibid.]\nAntigen microarrays constitute a new tool for studying the immune system in health [Quintana, F. J. and Cohen, I. R. Biomed Pharmacother 58:276-281 (2004); Merbl, Y. et al. Clin. Invest. 117:712-718 (2007); Quintana, F. J. et al. J. Autoimmun. 21:65-75 (2003)] and disease [Goldschmidt, Y. et al. Technical Report MCS03-071-018 (2003); Hueber, W. et al. Arthritis Rheum. 52:2645-2655 (2005)]. The inventors therefore used an antigen microarray containing a broad panel of antigens that included self and non self proteins, heat shock proteins, and infectious agents to investigate the effects of oral OKT3 on the immune repertoire. Both increases and decreases of immunoglobulin reactivities were measured.\nNo changes occurred in the IgM repertoire."}}}
{"substance": "OKT3: murine monoclonal anti-CD3 antibody (Orthoclone OKT-3, Ortho Biotech)", "values": [{"measurement": "CD3+ lymphocyte counts or modulation of CD3 from the T cell surface", "setting": "[1]", "result": "no decrease"}, {"measurement": "anti-OKT3 (HAMA) antibodies", "setting": "[1]; day 30", "result": "no subject developed"}, {"measurement": "IgG reactivities affected", "setting": "[2]; 0.2 mg dose", "result": 4}, {"measurement": "IgG reactivities affected", "setting": "[2]; 1.0 mg dose", "result": 37}, {"measurement": "downregulated IgG reactivities", "setting": "[2]; 1.0 mg dose", "result": 19}, {"measurement": "up regulated IgG reactivities", "setting": "[2]; 1.0 mg dose", "result": 18}, {"measurement": "downregulated IgG reactivities", "setting": "[2]; 5 mg dose", "result": 18}, {"measurement": "up-regulated IgG reactivities", "setting": "[2]; 5 mg dose", "result": 47}, {"measurement": "IgG reactivities affected", "setting": "[2]; 5.0 mg dose", "result": 65}, {"measurement": "changes in the IgM repertoire", "setting": "[2]; oral OKT3", "result": "No changes"}]}
